Test in all cases: NCI anticancer screen, dose series, 48 h
Test [1] relates to SNB-78 CNS.
Test [2] has as its system DMS 114 small cell lung.
Test [3] has as its system KM20L2 colon.
Test [4] relates to M19-MEL melanoma.
Test [5] concerns LXFL 529 NSCLC.
For test [6], the system named is HOP-18 NSCLC.
In test [7] the test system is MCF7 breast.
Test [8] deals with MDA-MB-231 breast.
The test system of test [9] is BT-549 breast.
Test [10] concerns HS 578T breast.

Where “and” joins values, the source holds several entries; their conditions need not be identical. Equal entries are not always repeated.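 All cell lines were grown in 96-well plates and treated with compound for 48 hours. GI50: concentration for 50% inhibition of growth. The concentration for full growth arrest is given as TGI.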

In the case of `CC1Nc2ccccc2NC1C=C(C#N)C#N` (stereo not drawn), the TGI in test [1] was 36.4 µM; in test [2], 40.7 µM; in test [3], 31 µM; in [4], 30.5 µM; in test [5], 25.7 µM; in test [6], 40.1 µM.

For the molecule `CN1C=C(C(N)=O)Cc2ccsc21`, the TGI in test [1], in test [2], in [3], in test [4], in test [5] and in test [6] was > 100 µM each time.

In the case of `CC[C@@]1(O)C(=O)OCc2c1cc1n(c2=O)Cc2cc3c(N)c(OC)ccc3nc2-1`, the GI50 in [1] was 1.22 µM; in test [2], 0.0252 µM; in [3], 0.125 µM; in [4], 0.159 µM; in [5], 0.953 µM; in [6], 0.14 µM. The TGI in [1] was > 100 µM; in test [2] it was 0.189 µM; in test [3], 1.8 µM; in test [4] it was 1.46 µM; in test [5] it was > 25.6 µM; in test [6] it was > 100 µM.

As for `NNC(=O)C(=O)N/N=C1\CCCC1C(=O)CCC(=O)Nc1cccc(Cl)c1` (stereo not drawn), the TGI in test [1], in test [2], in test [3], in test [4], in test [5] and in test [6] was > 100 µM in each case.

As to `O=C1C[C@@H]2[C@@H](C=CC23CCCC3)N1O`, the TGI in test [1], in test [2], in [3], in test [4], in test [5] and in [6] was > 100 µM throughout.

For `O=C1/C(=C/c2ccccc2)CN(C(=O)/C=C/c2ccccc2)C/C1=C\c1ccccc1`, the TGI in test [1] was > 73 µM; in test [7] it was 3.83 µM; in test [2], > 43.8 µM; in [3], > 46.2 µM; in [8], 10.9 µM; in test [4], > 22.9 µM. For the same molecule, the TGI in test [9] was 4.7 µM; in test [10], > 100 µM; in test [5], 29.1 µM; in test [6], 97.6 µM.

Take `Nc1ncnc2c1ncn2C1(CO)OC(CO)C(O)C1O` (stereo not drawn): the TGI in test [1], in test [2], in test [3], in test [5] and in [6] was > 100 µM in each case.

On to `O=C1C=C(c2ccccc2)NC1(c1ccccc1)c1cc(-c2ccccc2)[nH]c1-c1ccccc1` (stereo not drawn), for which the TGI in test [1], in test [2], in test [3], in [4], in [5] and in [6] was > 100 µM each time.

On to `CC(=O)CC(=O)Nc1ccc(OS(N)(=O)=O)cc1`, for which the TGI in [1], in test [2], in test [3], in [4], in [5] and in [6] was > 100 µM throughout.

As for `C=CCN=C1NC(=O)C(CC(=O)Nc2ccc([N+](=O)[O-])cc2[N+](=O)[O-])S1` (stereo not drawn), the TGI in [1], in test [2], in [3], in test [4], in test [5] and in [6] was > 100 µM in each case.

Consider `O=S(=O)([O-])c1ccc(C=Nc2ccccc2)c([O-])c1.O=S(=O)([O-])c1ccc(C=Nc2ccccc2)c([O-])c1.[Co+2]`, for which the GI50 is 51.7 µM in test [1]; > 100 µM in test [2]; 1.76 µM in test [3]; 78.7 µM in test [4]; 43.1 µM in test [6]. In addition, the TGI in test [1], in test [2], in test [3], in test [4] and in test [6] was > 100 µM in each case.

In the case of `CCOC(=O)N1C/C(=C\c2ccc(N(C)C)cc2)C(=O)/C(=C/c2ccc(N(C)C)cc2)C1`, the TGI in [1], in [2], in test [3], in [4], in test [5] and in test [6] was > 100 µM throughout.

Turning to `COc1ccc(-c2cc(-c3ccco3)c(C#N)c(=O)n2C2OC(COC(C)=O)C(OC(C)=O)C(OC(C)=O)C2OC(C)=O)cc1` (stereo not drawn), the TGI in test [1] was > 100 µM; in test [2], > 100 µM; in [3], > 100 µM; in test [4], > 100 µM; in [5] it was 59.6 µM; in test [6] it was > 100 µM and 64.2 µM. Besides, the GI50 in test [2] is > 100 µM and 21.6 µM.

For `COc1cc2c(c(OC)c1OC)[C@@H]1CCCCC[C@@H]1CCC2=O`, the TGI in test [2] is > 57.1 µM; in [3], > 100 µM; in test [4], > 100 µM; in [5], > 100 µM; in test [6] it was > 100 µM.

In the case of `COc1cc(Br)c(/C=N/N=C(\N)NO)cc1OC`, the TGI in [1] is > 100 µM; in test [2], 33.6 µM; in [3] it was 47.2 µM; in test [4], 76.2 µM; in test [5], > 100 µM; in test [6] it was > 100 µM.

In the case of `Cc1ccccc1-c1cc(=O)c2cc(C)c(C)c(C(=O)O)c2o1`, the TGI in test [1], in test [2], in test [3], in [4], in [5] and in test [6] was > 100 µM in each case.

Turning to `NNC(=S)N/N=C(\c1nc2ccc(Cl)cc2[nH]c1=O)C(O)c1cccc([N+](=O)[O-])c1` (stereo not drawn), the TGI was > 100 µM in test [1]; > 24.5 µM in [2]; > 100 µM in [3]; > 100 µM in [4]; > 100 µM in [5]; > 100 µM in test [6].

Turning to `CC[P+](C)(C)CC`, the TGI in test [1], in test [2], in [3], in test [4], in [5] and in test [6] was > 100 µM each time.

On to `Oc1ccc(Br)cc1C=Nc1ccc(Oc2ccc(N=Cc3cc(Br)ccc3O)cc2)cc1`, for which the TGI in test [2], in [3], in test [4], in [5] and in test [6] was > 19.6 µM each time.

Regarding `CC12CC(Br)(Br)C(=O)C3C1CCCC32`, the TGI in test [1] stood at 44.8 µM; in [7], 11.2 µM; in test [2], 16.2 µM; in test [3] it was 37.9 µM; in [8], 7.62 µM; in test [4], 22.8 µM. Besides, the TGI in test [9] was found to be 5.04 µM; in [10] it was 45.2 µM; in test [5], 6.83 µM; in test [6], 22.6 µM.

Consider `CCOC(=O)C(c1ccsc1)P(=O)(OCC)OCC` (stereo not drawn), for which the TGI worked out at 76.9 µM in [1]; 29 µM in test [2]; 29 µM in [3]; 25.7 µM in test [4]; 26.7 µM in [5]; 43.8 µM in test [6].

As to `CCCCCCCCCCCCNC(=S)OCCCC`, the TGI in [1], in test [2], in [3], in test [4], in test [5] and in [6] was > 100 µM in each case.

On to `O=C(O)C(Cc1ccc(O)cc1)N=Cc1nc(-c2ccccc2)oc1O` (stereo not drawn), for which the TGI in [1], in [2], in [3], in [5] and in test [6] was > 100 µM each time.
